Experimental data published in patent US8835571B2, “Fatty acid derivative-polymer conjugate” (Sucampo AG, priority 2012, dated 2014).

Experiment: incorporation of unoprostone isopropyl into MPEG-hexPLA polymer micelles
Assay type: physicochemical
Experimental: The incorporation studies were carried out by a standard formulation protocol. Briefly, a defined amount of the provided unoprostone isopropyl ethanol solution was taken and the ethanol rapidly evaporated, the remaining compound was re-dissolved together with the MPEG-hexPLA excipient in acetone and added dropwise under sonication into water, followed by evaporation of the organic solvent and equilibration of the micelle solution overnight.
As it can be seen, for loadings up to 500 mg unoprostone isopropyl per gram MPEGhexPLA, loading efficiencies higher than 80% could be obtained by this simple procedure (FIG. 1), corresponding to 2.22 mg drug per mL formulation (FIG. 2). […] The latter formulations with a minimum of drug loss in the formulation procedure gave transparent formulations.

With `CCCCCCCC(=O)CC[C@@H]1[C@@H](C/C=C\CCCC(=O)OC(C)C)[C@@H](O)C[C@H]1O` [unoprostone isopropyl, (+)-isopropyl (Z)-7-[(1R,2R,3R,5S)-3,5-dihydroxy-2-(3-oxodecyl)cyclopentyl]hept-5-enoate] the “obtained drug concentration in formulation” value (loading 500 mg per gram MPEGhexPLA (FIG. 2)) was 2.22 mg drug per mL formulation, the Incorporation efficiencies (loadings up to 300 mg/g) was over 90% and the “obtained drug concentration in formulation” value (loadings up to 300 mg/g) was at most 1.67 mg/mL. The loading efficiencies (loadings up to 500 mg unoprostone isopropyl per gram MPEGhexPLA (FIG. 1)) was “higher than 80%”.
